Experimental data: US7265154B2, “Valproic acid and derivatives thereof as histone deacetylase inhibitors” (Georg-Speyter-Haus Chemotherapeutisches Forschungsinstitut, priority 2000, dated 2007)
“And” between values parts separate entries of the source, which are not always exact repeats. Equal values may be shown once. Square brackets hold non-standard residues; d marks the D form. Peptide text beside a SMILES is read from it. Aoe = N[C@@H](CCCCCC(=O)[C@@H]1CO1)C(=O)O

Key:
[1] = tested on: F9 teratocarcinoma cells; assay: Nuclear AP-2 protein as differentiation marker, Western blot; assay type: cell-based; settings: 48 h; VPA 1 mM, sodium butyrate 1 mM, trichostatin A 30 nM
Excerpt: Nuclear extracts were separated on a 9% SDS polyacrylamide gel. AP-2 protein was detected by Western blot analysis using a rabbit polyclonal antibody (Santa Cruz, Cat.-No.: SC-184) at a dilution of 1/1000 in Tris buffered saline containing 3% non-fat dry milk and 0.05% Tween 20.

[2] = tested on: histones H3 and H4 in F9 cells; assay: Accumulation of hyperacetylated histones H3 and H4, Western blot; assay type: cell-based; settings: whole cell extracts, VPA in the range of therapeutic serum levels, 16 h
Excerpt: Histone deacetylase inhibitors induce the accumulation of N-terminally hyperacetylated histones H3 and H4. These acetylated histones can be detected by Western blot analysis of whole cell extracts or of histone preparations from histone deacetylase inhibitor-treated cells using antibodies specific for the acetylated N-terminal lysine residues of histones H3 and H4.
These acetylated histones can be detected by Western blot analysis in cell extracts of appropriately treated cells.
(A) For the time course analysis F9 cells were seeded into 6-well culture dishes 30 h before the intended time point of analysis. […] DNA of collected samples was sheared by sonication and samples were separated on a 15% denaturing polyacrylamide gel. Acetylated histones H3 and histone H4 were detected by Western blot analysis using commercially available antibodies (Upstate Biotechnology) specific for the acetylated forms of histones (Ac-H3, Cat-Nr.: 06-599; Ac-H4, Cat-Nr.: 06-598). Equal loading of the lanes was confirmed by staining a part of the polyacrylamide gel by Coomassie blue.
Whole cell extracts were prepared 16 h after treatment as described above. Analysis for acetylated histones H3 and H4 was performed as described in (A).

[3] = biological target: T1, PPARδ ligand binding domain (glucocorticoid receptor hybrid) (UniProt P04150+P35396); assay: PPARδ-glucocorticoid receptor hybrid reporter gene assay (alkaline phosphatase) in CHO cells; assay type: cell-based; settings: 40 h, cPGI 5 μM with VPA 1 or 2 mM or TSA 300 nM
T1 construct: expressed in transfected cells; host or cells: CHO subclone with MMTV-LTR alkaline phosphatase reporter
T1 sequence (P04150+P35396 with tags, fused parts or gaps): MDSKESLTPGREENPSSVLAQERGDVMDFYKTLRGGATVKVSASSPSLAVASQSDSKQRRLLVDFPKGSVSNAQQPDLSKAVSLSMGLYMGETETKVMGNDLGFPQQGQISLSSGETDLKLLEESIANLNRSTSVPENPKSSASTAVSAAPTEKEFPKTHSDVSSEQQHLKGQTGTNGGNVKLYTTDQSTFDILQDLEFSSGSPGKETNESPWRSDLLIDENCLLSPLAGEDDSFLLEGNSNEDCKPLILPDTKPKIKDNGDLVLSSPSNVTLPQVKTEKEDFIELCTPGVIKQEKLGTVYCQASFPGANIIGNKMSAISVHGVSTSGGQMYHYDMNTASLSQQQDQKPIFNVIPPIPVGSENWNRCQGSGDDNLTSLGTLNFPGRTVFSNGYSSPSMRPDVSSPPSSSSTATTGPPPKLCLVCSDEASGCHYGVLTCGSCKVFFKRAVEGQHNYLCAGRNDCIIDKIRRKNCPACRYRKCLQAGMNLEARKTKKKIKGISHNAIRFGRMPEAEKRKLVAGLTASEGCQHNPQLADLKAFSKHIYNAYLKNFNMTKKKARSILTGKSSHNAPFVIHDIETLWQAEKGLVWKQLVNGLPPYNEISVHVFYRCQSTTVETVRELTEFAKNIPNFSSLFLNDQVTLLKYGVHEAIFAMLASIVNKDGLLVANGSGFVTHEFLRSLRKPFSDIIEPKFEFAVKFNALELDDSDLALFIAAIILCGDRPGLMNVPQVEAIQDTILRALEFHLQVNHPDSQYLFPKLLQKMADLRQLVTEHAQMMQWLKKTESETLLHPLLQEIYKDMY
Excerpt: A reporter gene cell line for activation of the PPARδ ligand binding domain was constructed in CHO cells. […] Activation of the PPARδ ligand binding domain in these cells induces expression of the alkaline phosphatase reporter gene which is detectable by an enzymatic assay from the cell culture supernatant. […] Reporter gene activity was monitored by an enzymatic assay (alkaline phosphatase).

[4] = tested on: Gal4 fusion proteins of TR, PPARδ, RAR, N—CoR and AML/ETO in Hela cells; assay: Gal4 fusion protein transcriptional repression assay, UAS TK luciferase reporter; assay type: cell-based; settings: 24 h, VPA 1 mM, Trapoxin 10 nM, TSA 100 nM
Excerpt: The transcriptional assay for repressor activity exploits activation and derepression of a Gal4-dependent reporter gene. This assay can be performed either by transient transfection of mammalian cell lines (e.g. HeLa, 293T, CV-1) or with specifically constructed permanent cell lines. Transcription factors such as thyroid hormone receptor, PPARδ, retinoic acid receptor, N—COR and AML/ETO repress transcription when they bind to a promoter containing UAS elements as fusion proteins with the heterologous DNA-binding domain of the yeast Gal4 protein. […] HDAC inhibitors induce relief of this repression which can be detected as an increase in reporter gene activity (e.g. by luciferase assay).
The transcription factors thyroid hormone receptor (TR), peroxisome proliferator activated receptor □ (PPARδ), retinoic acid receptor (RAR), the corepressor N—CoR and the AML/ETO fusion protein repress transcription when they bind to a promoter containing UAS sites (Gal4 response element) as fusion proteins with the heterologous DNA binding domain of the yeast Gal4 protein. […] Transcriptional repression is measured as luciferase activity relative to the baseline of cells transfected with an expression plasmid for the Gal4 DNA binding domain alone (FIG. 2).

[5] = tested on: DU-145 prostate cancer cells; assay: Morphological evaluation for differentiation, DU-145; assay type: cell-based, human; settings: VPA treatment
Experimental: (§1) The reduction in biomass could indicate cell loss due to cell death and/or differentiation associated cell cycle arrest. Quantitative parameters, e.g. the loss of biomass, was determined in 30 human cancer cell lines (FIG. 8 e) and twelve examples of dose-response curves are shown, e.g. BT-549 breast cancer cells (1), estrogen dependent ZR-75 breast cancer cells (2), DMS-114 small cell lung cancer cells (3), NCl—H226 non-small cell lung cancer cells (4), SK-MEL-28 skin cancer cells (5), OVCAR-3 ovarian cancer cells (6), HUP-T3 pancreatic cancer cells (7), DU-145 prostate cancer cells (8), DETROIT-562 head and neck cancer cells, LS-174 colon cancer cells (10), A-172 brain cancer cells (11) and HL-60 leukemia cells (12) (FIGS. 8a-d). All cells were evaluated for morphological signs of cell death and/or differentiation.

[6] = tested on: U87MG cells; assay: Morphological evaluation for differentiation, U87MG; assay type: cell-based, human; settings: VPA treatment
Experimental: as §1

[7] = tested on: SW-1116 colon cancer cells; assay: Morphological evaluation for cell death, SW-1116; assay type: cell-based, human; settings: 1 mM VPA
Experimental: as §1

[8] = tested on: PC-3 cells; assay: Morphological evaluation for differentiation, PC-3; assay type: cell-based, human; settings: VPA treatment
Experimental: as §1

[9] = tested on: breast, ovarian, squamous cell and renal carcinoma cells; assay: Cell viability assay (MTT); assay type: cell-based; settings: 1 or 3 mM, 40 h or 70 h
Experimental: Human MDA-MB468, MDA-MB453 and SKBR3 breast carcinoma cells, A431 squamous cell carcinoma cells, and SKOV3 ovarian carcinoma cells were maintained in Dulbecco's modified Eagle's medium (DMEM, BioWhittaker, Verviers, Belgium) supplemented with 10% heat inactivated fetal bovine serum (FBS), 2 mM L-glutamine, 100 units/ml penicillin, and 100 μg/ml streptomycin. Human MCF7 breast carcinoma cells were grown in RPMI medium supplemented as described above.
Renal cell carcinoma (Renca) cells stably transfected with plasmid pZeoSV2/lacZ encoding E. coli β-galactosidase (Renca-lacZ cells) (Maurer-Gebhard et al., Cancer Res. 58: 2661-2666, 1998) were grown in RPMI-1640 medium supplemented with 8% FBS, 2 mM L-glutamine, 100 U/ml penicillin, 100 μg/ml streptomycin, 0.25 mg/ml Zeocin. […]
Tumor cells were seeded in 96 well plates at a density of 1×10^4 cells/well in normal growth medium. […] After solubilization of the formazan product, the absorption at 590 nm was determined in a microplate reader (Dynatech, Denkendorf, Germany) and the relative amount of viable cells in comparison to cells grown without the addition of valproic acid was calculated.

[10] = tested on: F9 teratocarcinoma cells; assay: 3H-thymidine incorporation in F9 cells; assay type: cell-based; settings: 1 mM VPA, 36 h, then 12 h 3H-thymidine
Excerpt: (§2) Cell differentiation is associated with cell cycle arrest, morphological alterations and the appearance of expression of markers of the differentiated phenotype. Morphological alterations where determined by microscopic evaluation of F9 and HT-29 cells. One parameter of differentiation, the cell cycle arrest, was shown in F9 teratocacrcinoma, estrogen independent MT-450 breast cancer and HT-29 colonic carcinoma cells by means of the reduced incorporation of ^3H-thymidine into cultured cells. […] 37 kBq of ^3H-thymidine were added for additional 12 h of culture. MT-450 cells were cultured for 72 h prior to a 1 h ^3H-thymidine labelling period. Incorporation of ^3H-thymidine into DNA was determined by automatic cell harvesting and liquid scintillation counting. […] The dose-response for the reduction of thymidine incorporation into HT-29 cells (FIG. 5A) was determined by the same experimental procedure. In addition, the induction of a cell differentiation marker was shown in F9 teratocarcinoma cells (FIG. 5B).

[11] = tested on: HT-29 colonic carcinoma cells; assay: 3H-thymidine incorporation in HT-29 cells; assay type: cell-based; settings: 1 mM VPA, 36 h, then 12 h 3H-thymidine
Excerpt: as §2

[12] = tested on: MT-450 breast cancer cells; assay: 3H-thymidine incorporation in MT-450 cells; assay type: cell-based; settings: 1 mM VPA, 72 h, then 1 h 3H-thymidine
Excerpt: as §2

[13] = tested on: human cancer cell cultures; assay: Reduction of total cellular biomass (Sulforhodamine B); assay type: cell-based; settings: 48 hours VPA
Experimental: Background OD of complete medium with 5% FBS fixed and stained as described above was also determined in 12 separate wells.

Structure (SMILES): CC(/C=C/C(=O)NO)=C\[C@@H](C)C(=O)c1ccc(N(C)C)cc1 [TSA, trichostatin A]
- Appearance of nuclear AP-2 protein [1]: induce nuclear AP-2 protein
- Accumulation of hyperacetylated histones H3 and H4 [2]: induce the accumulation of hyperacetylated histones H3 and H4
- Activation of the reporter gene together with the PPARδ ligand cPGI [3]: synergistic activation
- Relief of transcriptional repression (increase in reporter gene activity) [4]: relief of repression

Structure (SMILES): O=C1N[C@@H](Cc2ccccc2)C(=O)N2CCC[C@@H]2C(=O)N[C@@H](CCCCCC(=O)[C@@H]2CO2)C(=O)N[C@H]1Cc1ccccc1 [Trapoxin, trapoxin] (cyclo(FF[dP][Aoe]))
- Relief of transcriptional repression (increase in reporter gene activity) [4]: relief of repression

Structure (SMILES): CCCC(=O)[O-].[Na+] [sodium butyrate]
- Appearance of nuclear AP-2 protein [1]: weak
- Accumulation of hyperacetylated histones H3 and H4 [2]: induce the accumulation of hyperacetylated histones H3 and H4

Structure (SMILES): CCCC(CCC)C(=O)O [VPA, 2-n-propylpentanoic acid]
- Change of cell morphology [5]: change their normal round morphology to a long fibroblast-like shape
- Change of cell morphology [6]: increase in length and develop spider-like filamentous extensions
- Appearance of nuclear AP-2 protein [1]: induce nuclear AP-2 protein
- Cell death by morphological signs [7]: most cells were dying
- Accumulation of hyperacetylated histones H3 and H4 [2]: induce hyperactylation of histones H3 and H4
- Change of cell morphology [8]: change their normal round morphology to a long fibroblast-like shape
- Viability of tumor cells (MTT) [9]: reduces the viability
- Reduction of the rate of thymidine incorporation [10]: 48±5% and 48%
- Reduction of the rate of thymidine incorporation [11]: 52±8%
- Reduction of the rate of thymidine incorporation [12]: 63±8%
- Total cellular biomass [13]: reduces the total cellular biomass
